The source of these data is patent US6897316B2, “Substituted 2-phenyl-4-quinolone-3-carboxylic acid compounds and their use as antitumor agents” (China Medical University, priority 2003, dated 2005).

Assay [1] has as its system epidermoid carcinoma of the nasopharynx (KB) cell line. Kind of assay: Activity against HTCL replication, KB. The assay is classed as cell-based, human. The following applies: mean ED50. The protocol: Compounds were assayed for in vitro cytotoxicity in a panel of human tumor cell lines at the School of Pharmacy, University of North Carolina at Chapel Hill, according to procedures described previously [Lee, K. H., Lin, Y. M., Wu, T. S., Zhang, D. C., Yamagishi, T., Hayashi, T., Hall, I. H., Chang, J. J., Wu, R. Y., Yang, T. H. The cytotoxic principles of Prunella vulgaris, Psychotria serpens, and Hyptis capitata: Ursolic acid and related derivatives. Planta Med. 1988, 54, 308-11; Boyd, M. R. Status of the National Cancer Institute preclinical antitumor drug discovery screen: implications for selection of new agents for clinical trial. Devita, V. T., Jr. Hellman, S., Rosenberg, S. A., Eds, J. B. Cancer: Principles and Practice of Oncology Update, 1989, 3: pp1-12, Lippincoft: Philadephia; Monks, A., Scudiero, D., Skehan, P., Shoemaker, R., Paull, K., Vistica, D., Hose, C., Langley, J., Cronise, P., Vaigro-Wolff, A., Gray-Goodrich, M., Campbell, H., Mayo, J., Boyd, M. Feasibility of a high-flux anticancer drug screen using a diverse panel of cultured human tumor cell lines. J. Natl. Cancer Inst. 1991, 83, 757-66.] […]

Assay [2] deals with human ovarian cancer (IA9) cell line. The assay is described as follows: Activity against HTCL replication, IA9. The assay is classed as cell-based. As to the method:
Compounds were assayed for in vitro cytotoxicity in a panel of human tumor cell lines at the School of Pharmacy, University of North Carolina at Chapel Hill, according to procedures described previously [Lee, K. H., Lin, Y. M., Wu, T. S., Zhang, D. C., Yamagishi, T., Hayashi, T., Hall, I. H., Chang, J. J., Wu, R. Y., Yang, T. H. The cytotoxic principles of Prunella vulgaris, Psychotria serpens, and Hyptis capitata: Ursolic acid and related derivatives. Planta Med. 1988, 54, 308-11; Boyd, M. R. Status of the National Cancer Institute preclinical antitumor drug discovery screen: implications for selection of new agents for clinical trial. Devita, V. T., Jr. Hellman, S., Rosenberg, S. A., Eds, J. B. Cancer: Principles and Practice of Oncology Update, 1989, 3: pp1-12, Lippincoft: Philadephia; Monks, A., Scudiero, D., Skehan, P., Shoemaker, R., Paull, K., Vistica, D., Hose, C., Langley, J., Cronise, P., Vaigro-Wolff, A., Gray-Goodrich, M., Campbell, H., Mayo, J., Boyd, M. Feasibility of a high-flux anticancer drug screen using a diverse panel of cultured human tumor cell lines. J. Natl. Cancer Inst. 1991, 83, 757-66.] The cell lines included human ovarian cancer (1A9), ileocecal carcinoma (HCT-8), lung carcinoma (A-549), glioblastoma (U-87-MG), bone (HOS), epidermoid carcinoma of the […] (KB), P-gp-expressing epidermoid carcinoma of the nasopharynx (KB-VIN), and melanoma (SKMEL-2) cell line. The cytotoxic effects of each compound were obtained as EC50 values, which represent the molar drug concentrations required to cause 50% inhibition.
Antitumor activity of compounds IX-8 and X-8 was further tested on the following 8 cancer cell lines: CAKI, HOS, KB, KB-VIN, SK-MEL-2, U87-MG, HCT-8 and IA9. […] It is worth mentioning that these two compounds were quite active against human ovarian cancer cells (IA9), which were known to have a high level of drug resistant P-glycoprotein. IC50 of compound IX-8 against these cancer cells is only 0.03 μg/mL. Thus, this compound is really worth developing, particular against drug resistant ovarian cancer.

≈ marks a conversion by molar mass, not a printed value.

Broadly, the IC50 is the concentration that inhibits the measured activity by half. Regarding `COc1ccc2[nH]c(-c3cccc(F)c3)c(C(=O)O)c(=O)c2c1` [IX-8, 3′-Fluoro-6-methoxy-2-phenyl-4-quinolone-3-carboxylic acid], the “ED50 KB” value in assay [1] was 0.13 µg/mL (≈ 0.415 µM). For the same compound, in assay [2] (Homo sapiens, IA9, as worded in text, read-out: IC50 against human ovarian cancer cells (IA9)), the IC50 was found to be 0.03 µg/mL (≈ 0.0958 µM). In addition, the “ED50 IA9” value in assay [2] (ovarian cancer IA9, mean ED50) stood at 0.03 µg/mL (≈ 0.0958 µM).
